From US20250129067A1 (Progentos Therapeutics, Inc., priority 2021, published 2025)
Where two headings read alike, the source gives them in different places.

Legend:
PDGFRα = PDGFRα (Homo sapiens (Human), UniProt P16234); assay: PDGFRα kinase enzyme assay (Promega PDGFRα Kinase Enzyme System, ADP-Glo); format: biochemical; conditions: 150 uM ATP
How it was run: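 Read-out was ADP-Glo: remaining ATP depleted, ADP converted to luminescence and compared with a standard curve.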

[1] = tested on: Oligodendrocyte progenitor cells (OPCs); assay: In vitro OPC differentiation assay, MBP expression (immunocytochemistry); conditions: 72 hours of treatment; fold change over vehicle
[2] = tested on: Oligodendrocyte progenitor cells (OPCs); assay: In vitro OPC differentiation assay, GPR17 expression (immunocytochemistry); conditions: 72 hours; for GPR17 Fold Induction (Over Vehicle; 3 μM): 3 μM (10× concentration, final 0.3 μM)
Experimental: To assess the effects of the PDGFRα inhibitors on OPC differentiation, primary OPCs were cultured and exposed to compounds. The number of newly generated oligodendrocytes was assessed by monitoring GPR17 expression. GPR17 is preferentially expressed in actively differentiating oligodendrocytes, allowing them to be distinguished from precursors and more differentiated oligodendrocytes.
Cortices from postnatal day (P) 1-3 rats were dissected and collected into ice cold Hank's Balanced Salt Solution (HBSS). […] Briefly, the cortical cell suspension was centrifuged and washed with buffer (0.5% BSA in PBS) and labeled with Anti-A2B^5 MicroBeads (10 μL beads per 1×10^7 cells) for 15 minutes at 4° C. Following the incubation, cells were washed once with BSA buffer to remove unlabeled beads. A2B^5 positive cells were eluted on the column using the AutoMACS® (Miltenyi, as per manufacturer's protocol using “Possel-s” program). Eluted cells were further washed twice with OPC growth media. Cell counts were performed using Countess III cell counter (ThermoFisher; AMQAX2000) and cells were plated.
The plates were allowed to sit at room temperature for 15 minutes to ensure proper dispersion of cells in a well. The plates were then transferred to the incubator (37° C.; 5% CO2).
Cells were then incubated for 72 hours at 37° C., 5% CO2 before immunostaining for GPR17 marker expression.
Following 72 hours in culture, cells were fixed with 4% paraformaldehyde for 15 minutes and then washed three times in Dulbecco's phosphate buffered saline (DPBS). Prior to immunostaining, cells were treated with a blocking solution (10% normal goat serum containing 1% BSA and 0.1% Triton® X-100 in DPBS) for 15 minutes at room temperature. Primary antibody (anti-GPR17 at 1:2000; Origene TA811615) was applied to cells overnight at 4° C. in incubation solution containing 1% normal goat serum, 1% BSA, and 0.1% Triton X-100 in DPBS. […] The secondary antibody was applied in incubation solution for 2 hours at room temperature, protected from light.
The number of differentiated GPR17+ cells was normalized to the total nuclei count and percent differentiated GPR17+ cells were reported. Statistical analysis was done using one-way ANOVA with multiple comparisons and post-hoc Tukey test in GraphPad Prism (GraphPad Software).

[3] = tested on: GPR17+ cells (newly differentiated oligodendrocytes); assay: In vivo OPC differentiation, GPR17+ cells in brain; conditions: adult female C57BL/6 mice, PO or IP, treatment period 1-3 days, entire brain, fold change over vehicle treated animals
[4] = 11-point dose response, 10,000 nM to 0.169 nM, BLQ = below limit of quantitation, read-out: IC50 Values on PDGFRα Kinase Inhibition, IC50
[5] = 5 μM (10× concentration, final 0.5 μM), fold change over vehicle
[6] = 20 ng purified PDGFRα, Poly (Glu4Tyr1) substrate, two hours, 11-point dose response, read-out: IC50 Values on PDGFRα Kinase Inhibition
[7] = primary rat OPCs, 5 μM (10x; final 0.5 μM per method), percent GPR17+ cells as fold change over vehicle

Sequence of PDGFRα (P16234 24-1089): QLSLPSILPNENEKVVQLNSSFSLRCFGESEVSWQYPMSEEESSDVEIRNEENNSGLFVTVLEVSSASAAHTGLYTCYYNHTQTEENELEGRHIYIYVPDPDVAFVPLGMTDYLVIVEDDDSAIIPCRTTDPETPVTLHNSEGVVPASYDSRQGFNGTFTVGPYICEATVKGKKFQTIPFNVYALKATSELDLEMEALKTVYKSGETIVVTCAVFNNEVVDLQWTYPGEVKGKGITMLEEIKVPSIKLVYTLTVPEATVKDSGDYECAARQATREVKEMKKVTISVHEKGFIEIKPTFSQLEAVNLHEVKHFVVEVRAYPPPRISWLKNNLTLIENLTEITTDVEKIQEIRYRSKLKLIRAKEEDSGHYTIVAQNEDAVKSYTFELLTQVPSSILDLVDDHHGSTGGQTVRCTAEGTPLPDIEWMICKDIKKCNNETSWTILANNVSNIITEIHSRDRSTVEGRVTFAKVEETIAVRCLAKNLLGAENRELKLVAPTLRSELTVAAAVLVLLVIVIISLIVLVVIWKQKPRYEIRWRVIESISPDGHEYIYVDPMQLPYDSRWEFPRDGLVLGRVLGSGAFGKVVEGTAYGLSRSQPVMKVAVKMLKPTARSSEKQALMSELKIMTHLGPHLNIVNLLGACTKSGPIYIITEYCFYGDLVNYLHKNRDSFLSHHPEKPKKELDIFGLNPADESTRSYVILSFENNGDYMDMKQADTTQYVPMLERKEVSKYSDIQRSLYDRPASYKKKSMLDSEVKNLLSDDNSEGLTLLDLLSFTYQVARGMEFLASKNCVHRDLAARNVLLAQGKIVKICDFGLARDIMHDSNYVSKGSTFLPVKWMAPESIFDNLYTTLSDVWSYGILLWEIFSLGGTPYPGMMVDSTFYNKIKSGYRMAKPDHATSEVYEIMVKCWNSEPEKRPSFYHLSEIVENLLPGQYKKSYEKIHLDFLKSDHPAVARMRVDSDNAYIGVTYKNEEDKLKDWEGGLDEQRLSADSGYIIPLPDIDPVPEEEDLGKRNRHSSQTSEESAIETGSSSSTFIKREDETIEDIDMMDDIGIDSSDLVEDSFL

| Compound | IC50 (PDGFRα; [4]) [nM] | MBP Fold Induction (Over vehicle) [1] | GPR17 Fold Induction (Over Vehicle; 3 μM) ([2]; fold change over vehicle) | GPR17 Fold Induction (Over Vehicle; 5 μM) [2, 5] | IC50 (PDGFRα; [6]) [nM] | In vivo GPR17+ cells, GPR17 Fold Induction (Over Vehicle) [3] | GPR17 Fold Induction (Over Vehicle; 5 μM) [2, 7] |
| --- | --- | --- | --- | --- | --- | --- | --- |
| 3-[4-(5-benzylpyrimidin-2-yl)piperazin-1-yl]-7-(1-methyl-1H-pyrazol-4-yl)imidazo[1,2-b]pyridazine [Compound 52] | 1950 | 2.66 | 9.09 | 5.41 |  |  |  |
| Cn1cc(-c2ccc3c(N4CCN(c5ncc(Cc6ccccc6)cn5)CC4)cnn3n2)cn1 [Compound 8, 3-[4-(5-benzylpyrimidin-2-yl)piperazin-1-yl]-6-(1-methyl-1H-pyrazol-4-yl)pyrazolo[1,5-b]pyridazine] | 1680 | 2.33 | 10.86 | 3.18 |  |  |  |
| Cn1cc(-c2ccc3c(N4CCN(c5ncccn5)CC4)cnn3c2)cn1 [Compound 10, 6-(1-methyl-1H-pyrazol-4-yl)-3-(4-pyrimidin-2-ylpiperazin-1-yl)pyrazolo[1,5-a]pyridine] | 6190 | 1.41 | 5.65 | 3.81 |  |  |  |
| Cn1cc(-c2ccc3c(N4CCN(C(=O)OCCC5CCOCC5)CC4)cnn3c2)cn1 [Compound 15, 2-(tetrahydro-2H-pyran-4-yl)ethyl 4-[6-(1-methyl-1H-pyrazol-4-yl)pyrazolo[1,5-a]pyridin-3-yl]piperazine-1-carboxylate] | 1410 | 1.97 | 6.37 | 3.98 |  |  |  |
| CCC(CC)OC(=O)N1CCN(c2cnn3cc(-c4cnn(C)c4)ccc23)CC1 [Compound 16, 1-ethylpropyl 4-[6-(1-methyl-1H-pyrazol-4-yl)pyrazolo[1,5-a]pyridin-3-yl]piperazine-1-carboxylate] | 283 | 5.15 | 6.82 | 2.39 | < 1000 |  |  |
| Cn1cc(-c2ccc3c(N4CCN(C(=O)Cc5ccccc5)CC4)cnn3c2)cn1 [Compound 18, 6-(1-methyl-1H-pyrazol-4-yl)-3-[4-(phenylacetyl)piperazin-1-yl]pyrazolo[1,5-a]pyridine] | 1650 | 1.77 | 4.40 | 3.50 |  |  |  |
| COCCn1cc(-c2ccc3c(N4CCN(c5ncc(Cc6ccccc6)cn5)CC4)cnn3c2)cn1 [Compound 29, 3-[4-(5-benzylpyrimidin-2-yl)piperazin-1-yl]-6-[1-(2-methoxyethyl)-1H-pyrazol-4-yl]pyrazolo[1,5-a]pyridine] | 925 | 4.26 | 9.41 | 3.20 |  |  |  |
| Cn1cc(-c2ccc3c(N4CCN(C(=O)OC5CCC5)CC4)cnn3c2)cn1 [Compound 32, cyclobutyl 4-[6-(1-methyl-1H-pyrazol-4-yl)pyrazolo[1,5-a]pyridin-3-yl]piperazine-1-carboxylate] | 320 | 2.96 | 10.59 | 6.99 |  |  |  |
| C[C@@H](OC(=O)N1CCN(c2cnn3cc(-c4cnn(C)c4)ccc23)CC1)c1ccccc1 [Compound 33, (R)-1-phenylethyl 4-(6-(1-methyl-1H-pyrazol-4-yl)pyrazolo[1,5-a]pyridin-3-yl)piperazine-1-carboxylate] | 7.17 | 2.44 | 13.76 | 7.14 |  |  |  |
| C[C@H](OC(=O)N1CCN(c2cnn3cc(-c4cnn(C)c4)ccc23)CC1)c1ccccc1 [Compound 34, (S)-1-phenylethyl 4-(6-(1-methyl-1H-pyrazol-4-yl)pyrazolo[1,5-a]pyridin-3-yl)piperazine-1-carboxylate] | 786 | 2.00 | 5.16 | 5.12 |  |  |  |
| Cn1cc(-c2ccc3c(N4CCC(c5ncc(Cc6ccccc6)cn5)C4)cnn3c2)cn1 (centres unmarked) [Compound 36, 3-[3-(5-benzylpyrimidin-2-yl)pyrrolidin-1-yl]-6-(1-methyl-1H-pyrazol-4-yl)pyrazolo[1,5-a]pyridine] | 685 | 1.92 | 7.08 | 5.22 |  |  |  |
| Cn1cc(-c2ccc3c(N4CCCN(c5ncc(Cc6ccccc6)cn5)CC4)cnn3c2)cn1 [Compound 37, 3-[4-(5-benzylpyrimidin-2-yl)-1,4-diazepan-1-yl]-6-(1-methyl-1H-pyrazol-4-yl)pyrazolo[1,5-a]pyridine] | 673 | 2.95 | 5.81 | 7.65 |  |  |  |
| Cn1cc(-c2cn3ncc(N4CCN(C(=O)OC(C)(C)C)CC4)c3cn2)cn1 [Compound 44, Tert-butyl 4-[6-(1-methyl-1H-pyrazol-4-yl)pyrazolo[1,5-a]pyrazin-3-yl)piperazine-1-carboxylate] | 638 | 1.75 | 4.28 | 3.74 |  |  |  |
| C[C@@H](OC(=O)N1CCN(c2cnn3nc(-c4cnn(C)c4)ccc23)CC1)c1ccccc1 [Compound 50, (R)-1-phenylethyl 4-(6-(1-methyl-1H-pyrazol-4-yl)pyrazolo[1,5-b]pyridazin-3-yl)piperazine-1-carboxylate] | 3140 | 1.82 | 5.00 |  |  |  |  |
| Cn1cc(-c2ccc3c(C4=CCN(c5ncc(Cc6ccccc6)cn5)C4)cnn3c2)cn1 [Compound 51, 3-[1-(5-benzylpyrimidin-2-yl)-2,5-dihydro-1H-pyrrol-3-yl]-6-(1-methyl-1H-pyrazol-4-yl)pyrazolo[1,5-a]pyridine] | 423 | 2.41 | 5.14 | 2.52 |  |  |  |
| Cn1cc(-c2ccc3c(N4CCN(c5ncc(Cc6ccc(Cl)cc6)cn5)CC4)cnn3c2)cn1 [Compound 65, 3-{4-[5-(4-chlorobenzyl)pyrimidin-2-yl]piperazin-1-yl}-6-(1-methyl-1H-pyrazol-4-yl)pyrazolo[1,5-a]pyridine] | 670 | 1.71 | 5.18 |  |  |  |  |
| Cn1cc(-c2ccc3c(N4CCN(c5ncc(C(O)c6ccccc6)cn5)CC4)cnn3c2)cn1 (centres unmarked) [Compound 71, (2-{4-[6-(1-Methyl-1H-pyrazol-4-yl)pyrazolo[1,5-a]pyridin-3-yl]piperazin-1-yl}pyrimidin-5-yl)(phenyl)methanol] | 5.27 | 25.00 | 9.66 |  |  |  |  |
| Cn1cc(-c2cnc3c(N4CCN(c5ncc(C(O)c6ccc(F)cc6)cn5)CC4)cnn3c2)cn1 (centres unmarked) [Compound 74, (4-Fluorophenyl)(2-{4-[6-(1-methyl-1H-pyrazol-4-yl)pyrazolo[1,5-a]pyrimidin-3-yl]piperazin-1-yl}pyrimidin-5-yl)methanol] | 563 | 5.83 | 7.19 |  |  |  |  |
| Cn1cc(-c2ccc3c(NC4CN(c5ncc(Cc6ccccc6)cn5)C4)cnn3c2)cn1 [Compound 131, N-(1-(5-benzylpyrimidin-2-yl)azetidin-3-yl)-6-(1-methyl-1H-pyrazol-4-yl)pyrazolo[1,5-a]pyridin-3-amine] | 3880 | 2.49 | 6.36 |  |  |  |  |
| Cn1cc(-c2ccc3c(N4CCN(c5ccc(Cc6ccccc6)cc5)CC4)cnn3c2)cn1 [Compound 150, 3-(4-(4-benzylphenyl)piperazin-1-yl)-6-(1-methyl-1H-pyrazol-4-yl)pyrazolo[1,5-a]pyridine] | 1140 | 2.93 | 4.10 |  |  |  |  |
| Cn1cc(-c2ccc3c(N4CCN(c5ncc(C(O)Cc6ccccc6)cn5)CC4)cnn3c2)cn1 (centres unmarked) [Compound 167, 1-(2-{4-[6-(1-methyl-1H-pyrazol-4-yl)pyrazolo[1,5-a]pyridin-3-yl]piperazin-1-yl}pyrimidin-5-yl)-2-phenylethanol] |  | 16.83 | 7.07 |  |  |  |  |
| COc1cc2c(cc1OC)-c1[nH]nc(Nc3cccc(F)c3)c1C2 [JNJ-10198409, JNJ=10198409, reference compound] |  |  |  |  | > 10000 | 1.16 | 3.87 |
| CN1CCN(c2ccc(Nc3ncc4cc(C#N)c(=O)n(C5CCCC5)c4n3)cc2)CC1 [ON123300, reference compound] |  |  |  |  | 73.5 | 1.49 | 6.72 |
| COc1ccc(N2Cc3cnc(Nc4ccc(F)cc4)nc3N([C@@H]3CC[C@@H](O)C3)C2=O)cc1 [RO4396686, reference compound] |  |  |  |  | 370 | 9.23 | 3.61 |
| CNC(=O)c1cc(COc2nnc(Nc3ccc(Cl)cc3)c3ccoc23)ccn1 [Telatinib, telatinib, reference compound] |  |  |  |  | 68.8 | 10.68 | 3.90 |
